{
  "source": "patent US6469049B1",
  "about": "“Method of treating, preventing or inhibiting central nervous system injuries and diseases” (The United States of America as represented by the …, priority 2000, dated 2002)",
  "key": {"rats": {"tested_on": "rats", "assay": "Experimental spinal cord injury (dynorphin A injection) in rats, motor scores", "assay_type": "in vivo", "conditions": "rat, about 5 micromoles DHLA intrathecally, 2 hour pretreatment and treatment after injury", "experimental": "Here, about 5 micromoles of DHLA was administered intrathecally as a 2 hour pretreatment. Flaccid paralysis was acutely evident about 10 minutes after injection with dynorphin A and where there was no pretreatment with DHLA or co-treatment with DHLA. […] See Long et al., (1999) Neurosci. Abs. 25, which is herein incorporated reference."}, "cultured neurons": {"tested_on": "cultured neurons", "assay": "H2O2-induced oxidative insult in cultured neurons, MTT assay of neuroprotection", "assay_type": "cell-based, rat", "conditions": "for % Neuroprotection: 4 h incubation, then 50 μM H2O2 30 min, MTT after 24 h, mean ± SEM; for effect on the neuroprotective efficacy of DHL: H2O2 insult", "description": "(§1) Primary cultures may be established following the procedures outlined by Koenig, M. L., et al., (1996) Brain Res. 730:143-149, which is herein incorporated by reference. The forebrains of fetal rat pups (embryonic day 15) are isolated and the cells are dispersed by repeated trituration in neuronal culture medium (NCM). NCM comprises a 1:1 ratio of Ham's F-12 (Biofluids, Rockville, Md.) to Basal Medium Eagle (Sigma, St. Louis, Mo.), supplemented with 0.6 g/L of dextrose, 0.35% glutamine and 1% Pen-Strep (Biofluids. Rockville, Md.). Following centrifugation at 900×g for 5 minutes, the cells are plated onto poly-L-lysine-coated 48 well plates at a density of 10^6 cells/ml. To suppress glial growth. the cultures are treated with cytosine arabinoside (10^−5 M) for 4 days. All cultures are maintained in an incubator comprising 5% CO2 at 37° C. for about 6 days to about 15 days prior to use.\nOxidative injury is assessed by using an MTT assay (Sigma, St. Louis, Mo.). About 24 h after exposure to either hemoglobin or an oxidative insult, MTT is added to each test well such that the final concentration of the dye is about 0.15 mg/ml. Plates are returned to the incubator for about 1 hr at which time unincorporated MTU is removed and the plates are allowed to air dry. The purple formazan product indicative of viable cells is then dissolved by adding about 250 μl of acidified isopropanol comprising about 95% isopropanol and about 5% 2N HCl. About 200 μl aliquots are collected and the absorbance of these aliquots are measured on an ELISA plate reader at about 540 nm. Control (untreated) wells are included in each experiment, and viability is calculated as the percentage of mean control values for each plate.\n(§2) Cultured neurons were incubated with four DHL concentrations, 3.0, 10.0, 30.0, and 100.0 micromolar of DHL, with or without 10 mM SPBN for four hours. After incubation. an oxidative insult was applied by adding 50 micromolar of H2O2 for 30 minutes after which the medium was removed and replaced with Minimum Essential Medium (MEM) (Sigma. St. Louis, Mo.). After 24 hours, the colormetric MTT assay as described above was conduced to determine amount of neuroprotection.\nas §2, with “30.0.” for “30.0,”, “PBN” for “SPBN”, “incubation,” for “incubation.”, “[…]” for “removed and replaced”, “(Sigma,” for “(Sigma.”"}, "[1]": {"tested_on": "primary cultures of neurons derived from the forebrains of E-15 rat fetuses", "assay": "Hemoglobin-induced toxicity in cultured neurons, MTT viability assay", "assay_type": "cell-based", "experimental": "See Koenig et al., (1999) Neurosci. Abs., 25, which is herein incorporated by reference. […] […] Neuronal viability was assessed by using the calorimetric MT assay of succinate dehydrogenase activity. MTT is a calorimetric dye, 3-(4,5-dimethylthiazol-2-yl)-2,5-diphenyltetrazolium bromide, and is available from Sigma. Neuroprotection increased with increasing concentrations of DHLA.\nas §1, with “To suppress glial growth. the cultures are treated with cytosine arabinoside (10^−5 M) for 4 days. All cultures are maintained in an incubator comprising 5% CO2 at 37° C. for about 6 days to about 15 days prior to use.” left out\nOxidative injury is assessed by using an MTT assay (Sigma, St. Louis, Mo.). […] About 200 μl aliquots are collected and the absorbance of these aliquots are measured on an ELISA plate reader at about 540 nm. Control (untreated) wells are included in each experiment, and viability is calculated as the percentage of mean control values for each plate."}, "[2]": {"tested_on": "cultured mouse hippocampal HT4 cells", "conditions": "cited from earlier work"}},
  "note": "“Also recorded” adds a separate entry of the source.",
  "data": [
    {"compound": "O=C(O)CCCC[C@@H](S)CCS", "note": "(racemic) [DHL, dihydrolipoic acid]", "values": [
      {"measurement": "protection against experimental spinal cord injury (motor scores)", "setting": "rats", "result": "protective; also recorded: improve motor scores"},
      {"measurement": "% Neuroprotection", "setting": "cultured neurons; DHL 3 μM, SPBN 0 mM", "result": "1.31 ± 5.23", "unit": "%"},
      {"measurement": "% Neuroprotection", "setting": "cultured neurons; DHL 10 μM, SPBN 0 mM", "result": "−3.68 ± 5.14", "unit": "%"},
      {"measurement": "% Neuroprotection", "setting": "cultured neurons; DHL 30 μM, SPBN 0 mM", "result": "7.04 ± 7.38", "unit": "%"},
      {"measurement": "% Neuroprotection", "setting": "cultured neurons; DHL 100 μM, SPBN 0 mM", "result": "28.48 ± 5.83", "unit": "%"},
      {"measurement": "% Neuroprotection", "setting": "cultured neurons; Table 2 experiment: DHL 3 μM, PBN 0 mM", "result": "−1.3 ± 7.2", "unit": "%"},
      {"measurement": "% Neuroprotection", "setting": "cultured neurons; Table 2 experiment: DHL 10 μM, PBN 0 mM", "result": "22.2 ± 13.6", "unit": "%"},
      {"measurement": "% Neuroprotection", "setting": "cultured neurons; Table 2 experiment: DHL 30 μM, PBN 0 mM", "result": "22.1 ± 9.7", "unit": "%"},
      {"measurement": "% Neuroprotection", "setting": "cultured neurons; Table 2 experiment: DHL 100 μM, PBN 0 mM", "result": "36.9 ± 9.6", "unit": "%"},
      {"measurement": "neuroprotection against hemoglobin-induced toxicity (neuronal viability, MTT)", "setting": "[1]; DHLA co-applied with hemoglobin (no pre-incubation)", "result": "no evidence of neuroprotection"},
      {"measurement": "neuroprotection against hemoglobin-induced toxicity (neuronal viability, MTT)", "setting": "[1]; pre-incubation about 4 hours, about 0.3 to about 10 micromolar DHLA, then about 10 micromoles hemoglobin for about 24 hours", "result": "protective in a concentration-related manner"}
    ]},
    {"compound": "CN(C)CCNC(=O)CCCCC1CCSS1.Cl", "note": "(centres unmarked) [LA-plus, 2-(N,N-dimethylamine) ethylamido lipoate-HCL]", "values": [
      {"measurement": "in vitro protection against glutamate-induced loss of GSH, formation of peroxide and neurotoxicity, compared with ALA", "setting": "[2]", "result": "better"}
    ]},
    {"compound": "CC(C)(C)[N+]([O-])=Cc1ccccc1", "note": "[PBN, alpha-Phenyl-N-tert-butylnitrone, reference compound]", "values": [
      {"measurement": "effect on the neuroprotective efficacy of DHL", "setting": "cultured neurons; 10 mM PBN co-incubated with 3-100 μM DHL", "result": "significantly increased"}
    ]},
    {"compound": "CC(C)(C)[N+]([O-])=Cc1ccccc1S(=O)(=O)O", "note": "[SPBN, N-tert-Butyl-α-(2-sulfophenyl)nitrone, reference compound]", "values": [
      {"measurement": "effect on the neuroprotective efficacy of DHL", "setting": "cultured neurons; 10 mM SPBN co-incubated with 3-100 μM DHL", "result": "significantly increased"}
    ]}
  ]
}
